Series [1] deals with HIV-1ERS104pre (wild-type: X4). The series is described as follows: p24 Gag production inhibition, PHA-PBMs, wild-type clinical isolate. Type of series: cell-based. The protocol: (§1) Drug susceptibility assay. The susceptibility of HIV-1LAI, HIV-2EHO, HIV-2ROD, to various drugs and the cytotoxicity of those drugs was determined by using the MTT assay. Briefly, MT-2 cells (2×10^4/mL) were exposed to 100 TCID50s (50% tissue culture infectious doses) of HIV-1LAI, HIV-2EHO, or HIV-2ROD in the presence or absence of various concentrations of drugs in 96-well microculture plates and were incubated at 37° C. for 7 days. After 100 μL of the medium was removed from each well, 3-(4,5-dimethylthiazol-2-yl)-2,5-diphenyltetrazolium bromide (MTT) solution (10 μL, 7.5 mg/mL in phosphate-buffered saline) was added to each well in the plate, followed by incubation at 37° C. for 4 hours. […] All assays were performed in duplicate or triplicate. To determine the sensitivity of HIV-1Ba-L, HIV-1ERS104 pre, and clinical multi-drug-resistant HIV-1 isolates and different subtypes of HIV-1 isolates to drugs, phytohemagglutinin-activated peripheral blood mononuclear cells (PHA-PBMs; 10^6/mL) were exposed to 50 TCID50 (50% tissue infectious dose) of each HIV-1 isolate and cultured in the presence or absence of various concentrations of drugs in 10-fold serial dilutions in 96-well microtiter culture plates. To determine the drug susceptibility of certain laboratory HIV-1 strains (HIV-1NL4-3), MT-4 cells were used as target cells. MT-4 cells (10^5/mL) were exposed to 100 TCID50 of wild type HIV-1NL4-3 and PI-resistant HIV-1NL4-3 in the presence or absence of various concentrations of drugs and were incubated at 37° C. On day 7 of culture, the supernatant was harvested and the amount of p24 Gag protein was determined by using a fully automated chemiluminescent enzyme immunoassay system (Lumipulse F; Fujirebio Inc., Tokyo, Japan) (22). […] All assays were performed in duplicate or triplicate.
The amino acid substitutions identified in the protease-encoding region of HIV-1ERS104pre, HIV-1TM, HIV-1MM, HIV-1JSL, HIV-1B, HIV-1C, HIV-1G compared to the consensus type B sequence cited from the Los Alamos database include L63P; L10I, K14R, R41K, M46L, I54V, L63P, A71V, V82A, L90M; I93L; L10I, K43T, M46L, I54V, L63P, A71V, V82A, L90M, Q92K; L10I, L24I, I33F, E35D, M36I, N37S, M46L, I54V, R57K, I62V, L63P, A71V, G73S, V82A; L10I, K14R, L33I, M36I, M46I, F53I, K55R, I62V, L63P, A71V, G73S, V82A, L90M, I93L; L10I, I15V, K20R, L24I, M36I, M46L, I54V, I62V, L63P, K70Q, V82A, L89M; and L10I, V11I, T12E, I15V, L19I, R41K, M46L, L63P, A71T, V82A, L90M, respectively. HIV-1ERS104pre served as a source of wild-type HIV-1. The IC50 values were determined by using PHA-PBMs as target cells and the inhibition of p24 Gag protein production by each drug was used as an endpoint. The numbers in parentheses represent the fold changes of IC50 values for each isolate compared to the IC50 values for wild-type HIV-1ERS104pre. All assays were conducted in duplicate or triplicate, and the data shown represent mean values (±1 standard deviations) derived from the results of three independent experiments.

The next series concerns 92UG037 (A-R5). As to the kind of experiment: p24 Gag production inhibition, PHA-PBMs, subtype A isolate 92UG037. The class given is cell-based, HIV-1. As to conditions: Human immunodeficiency virus 1, read-out: IC50 against 92UG037 (A-R5). The protocol: as §1
The IC50 values were determined by using PHA-PBMs as target cells and the inhibition of p24 Gag protein production by each drug was used as an endpoint.

For another series, the system named is HIV-1NL4-3. As to the kind of experiment: In vitro selection of HIV-1 variants resistant to GRL-98065. The class given is cell-based. From the text:
Generation of PI-resistant HIV-1 in vitro. MT-4 cells (10^5/mL) were exposed to HIV-1NL4-3 (500 TCID50) and cultured in the presence of various PIs at an initial concentration of its IC50 values. Viral replication was monitored by determination of the amount of p24 Gag produced by MT-4 cells. The culture supernatants were harvested on day 7 and used to infect fresh MT-4 cells for the next round of culture in the presence of increasing concentrations of each drug. […] Proviral DNA samples obtained from the lysates of infected cells were subjected to nucleotide sequencing. This drug selection procedure was carried out until the drug concentration reached 1 or 5 μM.
The protease-encoding region of the proviral DNA isolated from infected MT-4 cells was cloned and sequenced at passages 5, 10, 15, 20, 25, 30, 33, and 40. […] Met46 is located on the flap region of the enzyme.

In the next series the target is T1, HIV-1 protease (Human immunodeficiency virus type 1 group M subtype B, UniProt P04585, C555A/C583A/L521I/L551I/Q495K/V491I).
T1 construct: Wild-type PR at final concentrations of 160-190 nM were added
The series is described as follows: biochemical. Type of series: biochemical. From the text:
Enzyme kinetics. The chromogenic substrate Lys-Ala-Arg-Val-Nle-p-nitroPhe-Glu-Ala-Nle-amide (Sigma, St. Louis, Mo.) was used to determine the kinetic parameters (Kovalevsky et al. J Mol Biol 363(1):161-173 (2006), Ghosh et al. J Med Chem 49(17):5252-5261 (2006)). […] The kcat and Km values were obtained employing standard data fitting techniques for a reaction obeying Michaelis-Menten kinetics. The data curves were fitted using SigmaPlot 8.0.2 (SPSS Inc., Chicago, Ill.). The active enzyme concentrations were calculated from the intercept of the linear fit to the IC50 versus [S] plots with the IC50 axis. The Ki values were obtained from the IC50 values estimated from an inhibitor dose-response curve with the spectroscopic assay using the equation Ki=(IC50-[E]/2)/(1+[S]/Km), where [E] and [S] are the PR and substrate concentrations, respectively (Maibaum & Rich J Med Chem 31(34):625-629 (1988)). The Ki values were measured at four to five substrate concentrations. The measurement was repeated at least three times to produce the average values.

Series [2] concerns HIV-1, HIV-2, and primary HIV-1 strains of different subtypes. The series is described as follows: Antiviral activity over Tables 1, 2 and 5 (summary). The class given is cell-based. The protocol: Drug susceptibility assay. The susceptibility of HIV-1LAI, HIV-2EHO, HIV-2ROD, to various drugs and the cytotoxicity of those drugs was determined by using the MTT assay. Briefly, MT-2 cells (2×10^4/mL) were exposed to 100 TCID50s (50% tissue culture infectious doses) of HIV-1LAI, HIV-2EHO, or HIV-2ROD in the presence or absence of various concentrations of drugs in 96-well microculture plates and were incubated at 37° C. for 7 days. After 100 μL of the medium was removed from each well, 3-(4,5-dimethylthiazol-2-yl)-2,5-diphenyltetrazolium bromide (MTT) solution (10 μL, 7.5 mg/mL in phosphate-buffered saline) was added to each well in the plate, followed by incubation at 37° C. for 4 hours. […] All assays were performed in duplicate or triplicate. […] On day 7 of culture, the supernatant was harvested and the amount of p24 Gag protein was determined by using a fully automated chemiluminescent enzyme immunoassay system (Lumipulse F; Fujirebio Inc., Tokyo, Japan) (22). […]

The nature of series [3]: Cytotoxicity by MTT assay. The class given is cell-based, Human. The settings on record: human. As to the method:
as §1
A general note: Tetrazolium dyes change colour on reduction, which living cells bring about.

The mark [4] stands for this setting: Human immunodeficiency virus 1, read-out: IC50 against HIV-1ERS104pre (wild-type: X4).
Where [5] appears, read: Human immunodeficiency virus 1, PHA-PBMs, p24 Gag production, read-out: IC50 against HIV-1ERS104pre (wild-type: X4).

Molecules are shown by their SMILES. Read-outs that look alike come from different tables or passages of the source.

Usually IC50 stands for the midpoint of a concentration-inhibition curve. Take `CC(C)(C)NC(=O)[C@@H]1C[C@@H]2CCCC[C@@H]2CN1C[C@@H](O)[C@H](Cc1ccccc1)NC(=O)[C@H](CC(N)=O)NC(=O)c1ccc2ccccc2n1` [SQV, Saquinavir]: the concentration for half-maximal inhibition (IC50) was 8 ± 3 nM in series [1] (setting [4]) and 3.2 ± 0.3 nM in the series with 92UG037 (A-R5).

For `Cc1c(O)cccc1C(=O)N[C@@H](CSc1ccccc1)[C@H](O)CN1C[C@H]2CCCC[C@H]2C[C@H]1C(=O)NC(C)(C)C` [NFV, Nelfinavir], in the series with 92UG037 (A-R5), the IC50 was 56 ± 14 nM.

One may read the Ki as a dissociation constant, usually derived from enzyme kinetics or from competition with a known ligand. A lower Ki goes with higher affinity. As usually defined, the CC50 is the concentration that lowers cell viability or growth by half. Lower therefore signals harm at low concentration. Turning to `CC(C)CN(CC(O)C(Cc1ccccc1)NC(=O)OC1COC2OCCC12)S(=O)(=O)c1ccc2c(c1)OCO2` (stereo not drawn) [GRL-98065], the “fold increase of drug concentration tolerated by selected virus” value in the series with HIV-1NL4-3 (40 passages in MT-4 cells, start 0.0005 μM) is reported as 1,000. Further, the “drug concentration at which selected virus was still propagating” value in the series with HIV-1NL4-3 (after 40 passages in MT-4 cells) amounted to 0.5 µM. For the same molecule, at HIV-1 protease, the Ki was 0.014 nM. Further, the IC50 was 0.2 to 4.5 nM in series [2] and 0.4 ± 0.1 nM in the series on 92UG037 (A-R5). The molecule further yielded a CC50 at 7 days in series [3] of 35700 nM.

In the case of `CC(C)CN(C[C@@H](O)[C@H](Cc1ccccc1)NC(=O)O[C@H]1CCOC1)S(=O)(=O)c1ccc(N)cc1` [APV, Amprenavir], in series [1] (setting [5]), the IC50 amounted to 29 ± 5 nM.

Take `COC(=O)N[C@H](C(=O)N[C@@H](Cc1ccccc1)[C@@H](O)CN(Cc1ccc(-c2ccccn2)cc1)NC(=O)[C@@H](NC(=O)OC)C(C)(C)C)C(C)(C)C` [ATV, Atazanavir]: the 50% inhibitory concentration (IC50) is 3.8 ± 0.4 nM in series [1] (setting [4]) and 2.5 ± 0.2 nM in the series on 92UG037 (A-R5).

On to `CC(C)(C)NC(=O)[C@@H]1CN(Cc2cccnc2)CCN1C[C@@H](O)C[C@@H](Cc1ccccc1)C(=O)N[C@H]1c2ccccc2C[C@H]1O` [IDV, indinavir], for which the IC50 in series [1] (setting [5]) amounted to 24 ± 8 nM.

With `Cc1cccc(C)c1OCC(=O)N[C@@H](Cc1ccccc1)[C@@H](O)C[C@H](Cc1ccccc1)NC(=O)[C@H](C(C)C)N1CCCNC1=O` [LPV, lopinavir], in series [1] (setting [5]), the half-maximal inhibitory concentration (IC50) amounted to 7 ± 1 nM.

With `CC(C)c1nc(CN(C)C(=O)N[C@H](C(=O)N[C@@H](Cc2ccccc2)C[C@H](O)[C@H](Cc2ccccc2)NC(=O)OCc2cncs2)C(C)C)cs1` [RTV, ritonavir], the IC50 in the series with 92UG037 (A-R5) amounted to 41 ± 8 nM.
